# Reference: patent publication US20120010178A1, “METHODS AND COMPOUNDS FOR TREATMENT OF NEURODEGENERATIVE DISORDERS” (PRESIDENT AND FELLOWS OF HARVARD COLLEGE, priority 2008, published 2012)
# Entries after “also recorded” stand apart in the source; their conditions may differ. Where two headings read alike, the source gives them in different places.
# How the values were obtained:
# [1] = system: SMN; assay: SMN levels in mouse (ES-cell derived) motor neurons; format: cell-based; details: for SMN levels in motor neurons (in words): mouse motor neurons
# Method: Mouse HB9-GFP derived SMN deficient motor neuron cells were incubated for 2 days with compounds from libraries and collections.
# Motor neurons were produced from mouse ES-cells expressing cherry fluorescent protein (CFP) under the control of the motor neuron-selective Hb9 promoter, as previously described (Wichterle et al., 2002).
# GFP expressing motor neurons were derived from mouse ES cells as described below. After growing for approximately 1 week, motor neurons were treated with allsterpaullone. Two days after treatment with allsterpaullone, cells were fixed and stained with SMN antibody or GFP antibody.
# mES cells were differentiated into motor neurons according to methods adapted from Wichterle et. al., Cell (2002), 110:385-397. Briefly, mES cells were grown to 70-80% confluence in 10-cm plates (Falcon) in ES cell medium. To form embryoid bodies, cells were washed once with PBS to eliminate mES medium and then incubated with 1 ml of 0.25% trypsin (GIBCO) for 5-10 min at 21-25° C. (RT). Cells were then resuspended in 10 ml of DM1 medium (DMEM-F12, GIBCO), 10% knockout serum (GIBCO), penicillin, streptomycin, glutamine (GIBCO) and 2-mercaptoethanol (GIBCO), counted and plated at a concentration of 200,000 cells per ml in Petri dishes (Falcon). Two days later, embryoid bodies were collected and resuspended into new Petri dishes containing DM1 medium supplemented with RAc (100 nM; stock 1 mM in DMSO, Sigma) and HhAg (100 nM). […] treatment was repeated with the same concentration of RAc (100 nM) and high concentration of HhAg (1 μM). On day 6, the embryoid bodies were collected in a 15-ml Falcon tube, and incubated in Earle's balanced salt solution with 20 units of Papain and 1,000 units of DNase I (Worthington Biochemical) for 10 min at 37° C. The mixture was then triturated with a 10-ml pipette and centrifugated for 5 min at 800 rpm. The resulting cell pellet was washed with PBS and resuspended in F12 medium (F12 medium, GIBCO) with 2% fetal bovine serum (GIBCO), B-27 supplement (GIBCO), (GDNF and BDNF, 20 ng ml^−1, R&D Systems). The cells were counted and plated on poly-ornithine coated 96-well plates (VWR).
# [2] = system: motor neurons; assay: Motor neuron survival (mouse motor neurons, compound treatment); format: cell-based
# Method: Mouse motor neurons were treated with […] inhibitors. The levels of both cytoplasmic and nuclear SMN were detected and quantified using the method described in Example 2. The results shown in FIG. 14b indicate that […] inhibitors increase motor neuron survival.
# Another way of assessing motor neuron survival is by withdrawing the neurotrophic factors from the media. Briefly, motor neurons are grown in media containing neurotrophic factors. The neurotrophic factors are then withdrawn from the growth media, e.g., cells transferred to media having no neurotrophic factors or neurotrophic factor containing media exchanged with neurotrophic factors lacking media. The compound of interest is added and motor neurons are counted on a daily basis.
# [3] = system: SMN; assay: SMN immunofluorescence quantification (cytoplasm, nucleus, GEMs) in fibroblasts from SMA patients; format: cell-based, human; details: for levels of cytoplasmic and nuclear SMN (in words): SMA patient fibroblasts, substance alone
# Method: Specifically, fibroblasts from patients suffering from SMA were treated with Ionomycin (a channel modulator), Ouabain (a cardiac glycoside and channel modulator), PDGF, SAHA (an HDAC inhibitor), Lactacystin (a proteasome inhibitor) or WIN 55,212-2 (a cannabinoid receptor […] and GPCR ligand) for 72 hours. The cells were fixed with methanol/acetone and stained with Pharmingen BD antibodies, followed by 488 AlexaFluor staining. Images were obtained with 60× lens on Zeiss LSM510 META on an inverted confocal microscope.
# For example, fibroblasts from patients suffering from SMA were treated with Ouabain, Digoxin or Lanatoside at a concentration of 0, 2.5 nM, 5 nM, 10 nM, 20 nM, 40 nM, 80 nM, […] for 72 hours. The cells were fixed with methanol/acetone and stained with Pharmingen BD antibodies, followed by 488 AlexaFluor staining. Images were obtained with 60× lens on Zeiss LSM510 META on an inverted confocal microscope.
# An assay was established for high-content evaluation of SMN protein level in different cellular compartments after treatment with small molecules. SMN protein was visualized by immunofluorescent staining and multiple fields from each plate well were scanned by an automated confocal Opera microscope. […] For each well, the algorithm generated quantitative parameters representing number of cells, as well as SMN fluorescent intensity per cell in cytoplasm, nucleus, number and intensity of GEMs (FIG. 15). […] During the assay transfer to the robotic platform fixation with the ice cold methanol was technically limited, therefore to preserve the maximum possible window we chose to perform the screen on parental fibroblast with PFA fixation.
# For fibroblast assays, human fibroblasts lines GM09677 (derived from patient with SMA type 1 disease) and GM03814 (derived from unaffected parental SMA carriers) were used (Coriell Cell Repositories). […] For secondary assays cells from GM09677 line were used.
# Fibroblasts were grown in MEM media (Invitrogen) supplemented with 5% Fetal Bovine Serum (FBS, Invitrogen), 2 mM glutamine and 1% penicillin-streptomycin (100 U/ml) in a presence of 5% CO2 at 37° C. For drug treatments, cells were plated and treated 24 h later with 10 μM MG132 (Biomol International), […] Calpeptin (Biomol International), 10 mM ammonium chloride, 1 μM myristoylated PKI, or vehicle for the designated times.
# (§1) Compounds were stored at appropriate temperature and dissolved accordingly to the manufacturers (Tocris, Enzo, EMD and Sigma-Aldrich) in DMSO (Sigma-Aldrich), unless stated otherwise (Monensin Na in EtOH, DMPQ in water). Growth factors and PDGF neutralizing antibodies (R&D Systems) were reconstituted with buffers recommended by the supplier. For generation of the dose curves, 1×10^3 fibroblasts were plated on to 96-well Greiner Senso plates (VWR) and treated with compounds on the second day then fixed and stained at the indicated time points. For GSK inhibitors and performing p-GSK3b(Ser9) detection, two days after plating growth media containing 5% FBS was replaced to the media with FBS reduced down to 0.5%, to starve cells for 72 hours. Addition of the GSK inhibitors was done in 5% FBS enriched media.
# [4] = biological target: T1, GSK3b (Ser-9 phosphorylation) (Homo sapiens, UniProt P49841); assay: p-GSK(Ser9) phosphorylation in patient fibroblasts (western blot / immunofluorescence); format: cell-based
# T1 construct: endogenous in cells; host or cells: SMA patient fibroblasts (GM09677), starved in 0.5% FBS before treatment
# T1 sequence (P49841 whole entry): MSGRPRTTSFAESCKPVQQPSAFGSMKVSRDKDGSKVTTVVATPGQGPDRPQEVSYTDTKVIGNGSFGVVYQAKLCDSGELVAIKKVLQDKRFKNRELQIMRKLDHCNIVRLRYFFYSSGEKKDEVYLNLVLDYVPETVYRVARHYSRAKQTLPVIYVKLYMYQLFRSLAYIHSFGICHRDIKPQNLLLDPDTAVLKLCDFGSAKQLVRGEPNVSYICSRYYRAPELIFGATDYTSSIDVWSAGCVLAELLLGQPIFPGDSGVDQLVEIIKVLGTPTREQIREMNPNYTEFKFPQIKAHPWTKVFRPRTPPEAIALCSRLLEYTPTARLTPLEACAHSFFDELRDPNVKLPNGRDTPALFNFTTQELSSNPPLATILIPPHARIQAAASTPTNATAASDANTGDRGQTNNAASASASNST
# Method: as §1, with “media. As previously described, starvation increases levels of constitutively activate GSK3b kinase, allowing to achieve a more dramatic inhibitory effect when GSK inhibitors are added together with growth factors that are also known to inhibit GSK by Ser-9 phosphorylation. […] For all compounds and growth factors control wells received solvent in amount equivalent to the highest concentration of the compound in a dose curve. For PDGF inhibitory studies, cells were pre-treated with kinase inhibitors for 2 hours and PDGF was added with a fresh kinase inhibitor solution and incubated for an additional 3 days.” for “media.”
# [5] = system: SMN; assay: High-content fibroblast screen for compounds that modulate SMN level; details: human fibroblasts, 2-3 days with compound;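 further: Anti-SMN immunostaining with confocal imaging of nuclear and cytoplasmic SMN and gem counts, tested at 0.1, 1 and 10 uM, fold change relative to negative control wells on each plate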
# Method: Human fibroblasts were incubated for 2-3 days with compounds from annotated collections. Cells were fixed and stained with an anti-SMN antibody. Confocal imaging was used to quantify SMN fluorescence in nucleus and cytoplasm and count Gems. Data were collected and subsequently analyzed by clustering compounds by suspected mechanism of action and chemical structure.
# Following optimization of assay conditions on day 0, total of 500 human fibroblasts (GM09677 line) per well were seeded in 384-well plates, on day 3 they were treated with compounds (robot CyBio) from the annotated collections and on the 5 day plates were fixed and stained (robot MAPD) with an anti-SMN antibody and secondary antibody conjugated with 448 fluorophore (FIG. 19a). Compounds from the libraries were added in duplicate at three final concentrations of 10, 1 and 0.1 uM.
# SMN detection was done on the automated confocal microscope Opera PerkinElmer with separate fluorescent exposures to 488 nM laser for and a UV light source to detect nuclei stained with Hoechst 33258 with a 20× objective.
# After scanning on the Opera, an XML file extraction workflow, designed with Inforsense KDE, was used to assemble the data from multiple replicate plates of each HCS experiment including the quantitative parameters described above and chemical identities, chemical concentrations and indications of which wells were used for positive and negative controls. […] The fold-induction of SMN intensity values for each well treated with a library chemical were normalized to the SMN average intensity in multiple negative control wells per plate.
# Since it is not known which form of SMN increase is the most essential, hits that scored in a duplicate at least in two different parameters greater than 1.3 fold at any of the three concentrations were selected (FIG. 19d). […] Further, 220 compounds were screened in the absence of anti-SMN primary antibody with the same assay conditions, to filter out the fluorescent compounds.
# [6] = system: SMN; assay: Inhibition of PDGF-stimulated SMN increase in fibroblasts by kinase/receptor inhibitors; format: cell-based, human; details: SMA patient fibroblasts, PDGF plus inhibitor or neutralizing antibody
# Method: Fibroblasts from patients suffering from SMA were treated with PDGF at a concentration of 0, 0.3 ng/ml, 0.63 ng/ml, 1.25 ng/ml, 2.5 ng/ml, 5 ng/ml, 10 ng/ml or 20 ng/ml, in the absence or in the presence of 25 uM DMPQ or 25 uM AG-1296 respectively for 72 hours. The levels of both cytoplasmic and nuclear SMN were detected and quantified using the method described in Example 2.
# (§2) Fibroblasts from patients suffering from SMA were either control treated or treated with PDGF at a concentration of 0, 0.63 ng/ml, 1.25 ng/ml, 2.5 ng/ml, 5 ng/ml, 10 ng/ml or 20 ng/ml, in the absence or in the presence of 50 uM LY294002 or 2 uM P1-103 respectively for 72 hours. The levels of both cytoplasmic and nuclear SMN were detected and quantified using the method described in Example 2.
# as §2, with “of” for “of 50 uM LY294002 or”, “uM Papamycin” for “uM P1-103 respectively”, “Example x.” for “Example 2.”
# A range of concentrations were tested in order not to miss the effects. SMN level were evaluated by Opera Evoteck in each cellular compartment and to assess the cell numbers that are summarized in the Table 3.
# as §1, with “media. As previously described, starvation increases levels of constitutively activate GSK3b kinase, allowing to achieve a more dramatic inhibitory effect when GSK inhibitors are added together with growth factors that are also known to inhibit GSK by Ser-9 phosphorylation. […] For all compounds and growth factors control wells received solvent in amount equivalent to the highest concentration of the compound in a dose curve. For PDGF inhibitory studies, cells were pre-treated with kinase inhibitors for 2 hours and PDGF was added with a fresh kinase inhibitor solution and incubated for an additional 3 days.” for “media.”
# [7] = system: PC12 cells; details: cited from earlier work
compound,measurement,setting,value
"O=C1Cc2c([nH]c3ccc(Br)cc23)-c2ccccc2N1 [kenpaullone, 9-bromopaullone]",SMN levels in motor neurons (in words),[1],without increasing SMN protein levels
same,motor neuron survival (in words),[2],promote motor neuron survival
C=C(C)[C@H]1Cc2c(ccc3c2O[C@@H]2COc4cc(OC)c(OC)cc4[C@@H]2C3=O)O1 [roteonone],spot intensity in ES-derived motor neurons,[1],decrease
same,SMN levels in motor neurons (in words),[1],decrease
CC(/C=C/C(=O)NO)=C\[C@@H](C)C(=O)c1ccc(N(C)C)cc1 [Trichostatin],SMN levels in motor neurons (in words),[1],increase SMN
same,SMN levels in motor neurons (in words),[1]; listed as Trichastatin,increase SMN levels
same,"effect on GEMs (number / intensity, in words)",[3]; fibroblasts,increased GEM counts at the lower concentrations
same,nuclear SMN at the higher dosage (in words),"[3]; fibroblasts, higher dosage",increased nuclear SMN predominantly
COc1cc2c(cc1OC)[C@@H]1C(=O)c3ccc4c(c3O[C@@H]1CO2)C=CC(C)(C)O4 [deguelin],spot intensity in ES-derived motor neurons,[1],decrease
same,SMN levels in motor neurons (in words),[1],decrease
COc1ccc(CNC(=O)Nc2ncc([N+](=O)[O-])s2)cc1 [AR-A014418],p-GSK-Ser9 phosphorylation (in words),[4]; patient fibroblasts,promoted phosphorylation of p-GSK-Ser9
same,SMN level fold increase,[3]; at a concentration of 23 μM,2 fold
same,SMN level in fibroblast screen (increase or decrease),[5],SMN is increase
Oc1cccc(-c2nc(N3CCOCC3)c3oc4ncccc4c3n2)c1 [PI-103],PDGF-stimulated SMN increase in presence of inhibitor (in words),[6],PDGF does not increase the levels of SMN; also recorded: able to prevent PDGF induced SMN increase in all cellular compartments; also recorded: completely abolished
same,PDGF-stimulated SMN increase in presence of inhibitor (in words),[6]; listed as P1-103,abrogated
same,SMN level in fibroblast screen (increase or decrease),[5],decreased SMN
CHIR98014,p-GSK-Ser9 phosphorylation (in words),[4],promoted phosphorylation of p-GSK-Ser9
same,SMN level fold increase,[3],over 2.5 fold
Cn1cc(C2=C(c3ccc(Cl)cc3Cl)C(=O)NC2=O)c2ccccc21 [SB216763],protection from EGTA induced death,[7],able to protect PC12 cells from EGTA induced death
COc1cc2ncc(-c3ccccc3)nc2cc1OC [AG-1296],PDGF-stimulated SMN increase in presence of inhibitor (in words),[6],sufficient to prevent PDGF effect on SMN; also recorded: abrogated
same,PDGF-stimulated SMN increase in presence of inhibitor (in words),[6]; listed as AG-1236,blocked; also recorded: abolished
same,decrease of basal level of SMN,"[3]; added to the regular serum media in which cells are maintained, no added PDGF",20%
same,SMN level in fibroblast screen (increase or decrease),[5],decreased SMN
COc1cc(OC)c2cc(-c3ccncc3)cnc2c1.Cl.Cl [DMPQ],PDGF-stimulated SMN increase in presence of inhibitor (in words),[6],sufficient to prevent PDGF effect on SMN; also recorded: abrogated; also recorded: blocked; also recorded: abolished
same,levels of cytoplasmic and nuclear SMN (in words),[3],decreases
same,levels of cytoplasmic and nuclear SMN (in words),[3]; listed as DMPQ dihydrochloride,decrease
same,SMN level in fibroblast screen (increase or decrease),[5],decreased SMN
